For 20 molecules, Ki results are on record in ChEMBL document CHEMBL1125547, “Synthesis and excitatory amino acid pharmacology of a series of heterocyclic-fused quinoxalinones and quinazolinones” (J Med Chem, 1992).

Structures are written as SMILES.

In test [1] the target is T1, Glutamate receptor ionotropic, AMPA (Rattus norvegicus, UniProt P19490+P19491+P19492+P19493). The test is described as follows: Displacement of [3H]AMPA from Ionotropic glutamate receptor AMPA. It is filed as protein-complex assay. In general terms: In a radioligand displacement assay an active substance lowers the binding of a labelled ligand.
For test [2], the target named is Glutamate receptor ionotropic, NMDA 1 (Rattus norvegicus, UniProt P35439). Briefly: Displacement of [3H]glycine from glycine site on the NMDA receptor.
In test [3] the target is T1, Glutamate receptor ionotropic, AMPA. Briefly: Compound was tested for its ability to displace [3H]-AMPA from AMPA receptor. It is filed as protein-complex assay.
The next test has as its target Glutamate NMDA receptor. Briefly: Compound was tested for its ability to displace [3H]glycine from glycine site on the N-methyl-D-aspartate glutamate receptor. It is filed as protein-complex assay.

What is called Ki is a measure of affinity in units of concentration, obtained from inhibition or displacement. For the molecule `CCc1nnc2c(O)nc3cc(Cl)c(Cl)cc3n12`, the inhibition constant Ki in test [1] was 4.78 µM; in test [2], 4.58 µM.
For `O=[N+]([O-])c1ccc2c(c1)nc(O)c1nnnn12`, the Ki in test [1] and in test [2] was more than 10 µM in each case.
With `Oc1nc2cc(Cl)c(Cl)cc2n2nnnc12`, the Ki in test [1] and in test [2] was more than 10 µM in each case.
In the case of `CCCCc1nnc2c(=O)[nH]c3cc(Cl)c(Cl)cc3n12`, the values for the Ki in test [1] and in test [2] were 1.71 µM and 1.48 µM, respectively.
Regarding `Oc1nc2cc(Cl)c(Cl)cc2n2cnnc12`, the values for the Ki in test [1] and in test [2] were 4.69 µM and 0.63 µM, respectively.
As for `O=c1[nH]c2cc(F)c(F)cc2n2cnnc12`, the Ki in test [1] and in test [2] was more than 10 µM throughout.
Take `Oc1nc2cc(Cl)c(Cl)cc2c2ccnn12`: the inhibitory constant (Ki) in test [1] and in test [2] was more than 10 µM throughout.
Turning to `CCCc1nnc2c(O)nc3cc(Cl)c(Cl)cc3n12`, the affinity in test [2], expressed as Ki, was 3.92 µM.
For `O=c1[nH]c2ccc([N+](=O)[O-])cc2n2nnnc12`, the Ki in test [1] and in test [2] was more than 10 µM each time.
Regarding `O=c1[nH]c2cc(Cl)ccc2c2ccnn12`, the Ki in test [1] and in test [2] was more than 10 µM throughout.
For the molecule `O=[N+]([O-])c1cc2nc(O)c3nncn3c2cc1[N+](=O)[O-]`, the values for the inhibition constant (Ki) (in test [3]; at Glutamate NMDA receptor) were 5.49 µM and 5.12 µM, respectively.
On to `O=[N+]([O-])c1ccc2c(c1)nc(O)c1nncn12`, for which the inhibition constant (Ki) in test [1] came out at 0.99 µM; in test [2], 7.35 µM.
`Cc1nnc2c(=O)[nH]c3cc(Cl)c(Cl)cc3n12`: the Ki was 4.45 µM in test [1] and more than 10 µM in test [2].
As to `Oc1nc2cc(Cl)c(Cl)cc2n2c(-c3ccccc3)nnc12`, the Ki in test [1] and in test [2] was more than 10 µM throughout.
`Oc1nc2cc(Cl)cc(Cl)c2n2cnnc12`: the Ki in test [1] is 3.24 µM; in test [2], 2.85 µM.
For the molecule `Oc1nc2cc(Cl)c(Cl)cc2n2ccnc12`, the results for the inhibition constant (Ki) in test [1] and in test [2] were 7.38 µM and 1.26 µM, respectively.
Consider `Oc1nc2cc(Cl)c(Cl)cc2n2c(C(F)(F)F)nnc12`, for which the Ki in test [1] and in test [2] was more than 10 µM throughout.
For the molecule `O=[N+]([O-])c1cc2nc(O)c3nnnn3c2cc1[N+](=O)[O-]`, the inhibition constant (Ki) (in test [3]; on Glutamate NMDA receptor) was more than 10 µM each time.
In the case of `Oc1nc2cc(Cl)c(Cl)cc2nc1O` [2,3-DIHYDROXY-6,7-DICHLOROQUINOXALINE], the Ki is 1.64 µM in test [1] and 0.21 µM in test [2].
Molecule `O=c1[nH]c2cc([N+](=O)[O-])c([N+](=O)[O-])cc2[nH]c1=O` [DNQX] had a Ki at Glutamate NMDA receptor of 0.39 µM.
